How the values were obtained:
BV2 cells = test: NOX inhibition assay in BV2 cells (LPS-induced reactive oxygen species, lucigenin); assay type: cell-based, mouse; settings: BV2 cells pre-treated 30 minutes, LPS 10 ng/ml, 0-10000 nM
Description: BV2 cells, a mouse microglial cell line, were washed with Hank's balanced salt solution (HBSS) and stabilized by incubation at 37° C. in HBSS for 30 minutes. Then, the compounds (compound of Example 1 or compound of Example 2) were treated at various concentrations (0 nM, 1 nM, 10 nM, 100 nM, 1000 nM, and 10000 nM). After 30 minutes, 10 ng/ml of lipopolysaccharide (LPS) and 200 μM of lucigenin were added to the cells. Lucigenin chemiluminescence induced by active oxygen (reactive oxygen species) was detected at 10-second intervals for 15 minutes using a luminometer (GLOMA, Promega).

human NOX2 = target: T1, human NOX2 (Homo sapiens, UniProt P04839); test: Lucigenin chemiluminescence assay, drosophila membranes expressing hNOX2; assay type: biochemical; settings: average of three repeats
T1 construct: made in house; host or cells: transgenic Drosophila (Da-GAL4 driven UAS-hNOX2, dDuox RNAi background); membranes from homogenized flies
T1 sequence (P04839 2-570 limits assumed): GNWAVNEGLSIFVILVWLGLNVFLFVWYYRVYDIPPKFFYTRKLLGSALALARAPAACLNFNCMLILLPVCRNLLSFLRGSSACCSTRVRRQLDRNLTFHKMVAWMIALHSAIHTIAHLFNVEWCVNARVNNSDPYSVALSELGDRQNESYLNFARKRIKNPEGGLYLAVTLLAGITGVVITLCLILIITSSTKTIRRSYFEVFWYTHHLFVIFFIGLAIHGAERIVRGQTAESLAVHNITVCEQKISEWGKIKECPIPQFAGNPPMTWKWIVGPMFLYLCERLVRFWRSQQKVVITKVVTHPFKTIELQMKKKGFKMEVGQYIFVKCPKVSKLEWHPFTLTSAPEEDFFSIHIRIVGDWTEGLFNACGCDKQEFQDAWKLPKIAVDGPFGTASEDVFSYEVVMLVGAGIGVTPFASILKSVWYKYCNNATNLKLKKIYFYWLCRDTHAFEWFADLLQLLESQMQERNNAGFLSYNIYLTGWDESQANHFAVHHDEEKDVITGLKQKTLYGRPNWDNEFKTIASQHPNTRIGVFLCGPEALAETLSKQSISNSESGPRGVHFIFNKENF
Description: Human NOX isozymes were provided from transgenic flies expressing human NOX isozymes from the daughterless (Da)-GAL4 promoter. The genotype of each fly line is shown below. • human NOX2:UAS-hNOX2/UAS-dDuox-RNAi; Da-GAL4/+ • human NOX4:UAS-hNOX4/UAS-dDuox-RNAi; Da-GAL4/+
Transgenic flies were homogenized in PBS containing protease inhibitors (aprotinin, leupeptin) to obtain drosophila membranes of each NOX isozyme. The membranes were incubated with the compounds (100 μM, 10 μM, 1 μM, 0.1 μM, 0.01 μM, 0.001 μM, and 0 μM) for 10 minutes in a shaker. Then, to the membranes, a mixture of 500 μM NADPH (R-nicotinamide adenine dinucleotide 2′-phosphate reduced tetrasodium salt hydrate; Sigma-Aldrich) and 400 μM lucigenin (N,N′-dimethyl-9,9-biacridinium dinitrate; Sigma-Aldrich) in 1× HEPES (4-(2-hydroxyethyl)-1-piperazineethanesulfonic acid) buffer was added. Lucigenin chemiluminescence was detected at 1-minute intervals for 10 minutes using a multimode microplate reader (SpectraMax iD3, Molecular Devices). IC50 values were calculated with Graph-Pad Prism 5 (GraphPad Software).
The lucigenin chemiluminescence assay was performed with drosophila membranes expressing hNOX1, hNOX2, and hNOX4. The assay was repeated three times and the IC50 values were averaged.

[1] = Cytotoxicity experiment (MTT assay) HepG2; assay type: cell-based; settings: human, HepG2 cells
Description: (§1) HepG2 (human hepatocellular carcinoma) and HT-22 (mouse hippocampal neuronal cell line) were seeded at densities of 1×10^5 or 1.5×10^4 per well in a 48-well plate and incubated for at least 12 hours, then treated with compounds of Example 1 and Example 2 at various concentrations (0 nM, 1 nM, 10 nM, 100 nM, 1000 nM, 10000 nM, 100000 nM, and 1000000 nM) and incubated for 24 hours. MTT solution (Thiazolyl Blue Tetrazolium Bromide 2 mg/ml) was subsequently added at 30 μl per well. After incubation for 4 hours, the culture medium containing the MTT solution was removed and 300 μl of DMSO was added to dissolve the MTT-formazan. 100 μl of the solution in each well was transferred to a 96-well plate and the absorbance was measured at 570 nm. IC50 values were calculated with Graph-Pad Prism 5 (GraphPad Software). The cell viability of the groups treated with the compounds of Example 1 and Example 2 at each concentration was determined relative to control group in which HepG2 cells were treated with DMSO alone, in at least five replicates.

[2] = Cytotoxicity experiment (MTT assay) HT-22; assay type: cell-based; settings: mouse, HT-22 cells
Description: as §1

PAMPA-BBB assay = assay type: in vitro ADME; settings: incubation 4 hr, pH 7.4, 25° C., U.V, read-out: Permeability Pe
Description: The parallel artificial membrane permeability assay (PAMPA) was performed to determine the brain barrier blood (BBB) permeability. […] For the Blank measurement, the donor buffer was dispensed into a high sensitivity UV plate at 150 μl per well and the UV values were measured (Blank sample). For the initial value measurement, the mixture in the deep well plate was dispensed 150 μl per well into the UV plate and the UV values were measured (initial sample). Next, 200 μl of the test compound mixture was dispensed onto the donor plate of the PAMPA sandwich, and the acceptor plate of the PAMPA sandwich was inverted and the membrane was coated with 5 μl of BBB-lipid solution. Then, 200 μl of acceptor sink buffer was added to each well of the acceptor plate, and the acceptor plate and donor plate were combined and incubated at 25° C. for 4 hours. […] Finally, the permeability (Pe(10^−6 cm/sec)) was analyzed using the PAMPA explore program. The experiment was performed in three replicates. The permeability of the material was analyzed by UV measurement and LC-MS/MS, the specific conditions of which are described below.

SMILES	production of reactive oxygen species (BV2 cells)	IC50 (human NOX2) [µM]	IC50 at 24 h [1] [µM]	IC50 at 24 h [2] [µM]	Papp at 4 h, 50 μM (PAMPA-BBB assay; 50 μM) [×10⁻⁶ cm/s]	Papp at 4 h, 10 μM (PAMPA-BBB assay; 10 μM) [×10⁻⁶ cm/s]
O=C(Nc1nnc(-c2cccc(Cl)c2)o1)c1cc(F)cc(C(F)(F)F)c1 [Example 1, N-(5-(3-chlorophenyl)-1,3,4-oxadiazol-2-yl)-3-fluoro-5-(trifluoromethyl)benzamide]	significantly reduced	0.09	4.2	2	> 0.4	–
O=C(Nc1nnc(-c2ccccc2)o1)c1ccc(F)c(C(F)(F)F)c1 [Example 2, 4-fluoro-N-(5-phenyl-1,3,4-oxadiazol-2-yl)-3-(trifluoromethyl)benzamide]	significantly reduced	0.26	1100	5.5	–	> 0.4

— US20250051293A1, “NOVEL OXADIAZOLE DERIVATIVE AND USE THEREOF” (CELROS BIOTECH, priority 2021, published 2025)
